Data: ChEMBL document CHEMBL4507291 (2021)

Columns and labels:
[1] = target: T1, Mitogen-activated protein kinase kinase kinase kinase 2 (Homo sapiens) (UniProt Q12851)
T1 sequence (whole entry): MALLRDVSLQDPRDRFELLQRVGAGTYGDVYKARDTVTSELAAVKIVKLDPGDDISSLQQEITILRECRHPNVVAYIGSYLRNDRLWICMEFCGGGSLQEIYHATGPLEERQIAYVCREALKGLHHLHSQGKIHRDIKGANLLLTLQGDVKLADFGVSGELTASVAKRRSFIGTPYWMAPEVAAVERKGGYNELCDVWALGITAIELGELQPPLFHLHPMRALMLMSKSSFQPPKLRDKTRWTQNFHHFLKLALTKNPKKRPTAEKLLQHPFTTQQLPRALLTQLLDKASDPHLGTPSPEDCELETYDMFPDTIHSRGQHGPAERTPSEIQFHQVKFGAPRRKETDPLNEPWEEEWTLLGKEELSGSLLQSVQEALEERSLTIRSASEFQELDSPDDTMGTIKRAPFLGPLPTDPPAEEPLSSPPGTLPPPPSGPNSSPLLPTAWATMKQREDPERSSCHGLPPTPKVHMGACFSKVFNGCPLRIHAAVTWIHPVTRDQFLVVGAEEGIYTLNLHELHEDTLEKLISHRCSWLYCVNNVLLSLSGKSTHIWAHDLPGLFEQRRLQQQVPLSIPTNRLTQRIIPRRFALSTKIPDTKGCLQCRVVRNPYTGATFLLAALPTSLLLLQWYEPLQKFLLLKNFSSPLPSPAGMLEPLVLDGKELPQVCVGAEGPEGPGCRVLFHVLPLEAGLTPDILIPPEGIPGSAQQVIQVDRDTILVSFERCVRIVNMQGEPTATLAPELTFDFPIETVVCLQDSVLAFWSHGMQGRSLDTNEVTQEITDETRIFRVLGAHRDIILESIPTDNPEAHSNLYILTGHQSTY

[2] = target: T2, Discoidin domain-containing receptor 2 (Homo sapiens) (UniProt Q16832)
T2 sequence (whole entry): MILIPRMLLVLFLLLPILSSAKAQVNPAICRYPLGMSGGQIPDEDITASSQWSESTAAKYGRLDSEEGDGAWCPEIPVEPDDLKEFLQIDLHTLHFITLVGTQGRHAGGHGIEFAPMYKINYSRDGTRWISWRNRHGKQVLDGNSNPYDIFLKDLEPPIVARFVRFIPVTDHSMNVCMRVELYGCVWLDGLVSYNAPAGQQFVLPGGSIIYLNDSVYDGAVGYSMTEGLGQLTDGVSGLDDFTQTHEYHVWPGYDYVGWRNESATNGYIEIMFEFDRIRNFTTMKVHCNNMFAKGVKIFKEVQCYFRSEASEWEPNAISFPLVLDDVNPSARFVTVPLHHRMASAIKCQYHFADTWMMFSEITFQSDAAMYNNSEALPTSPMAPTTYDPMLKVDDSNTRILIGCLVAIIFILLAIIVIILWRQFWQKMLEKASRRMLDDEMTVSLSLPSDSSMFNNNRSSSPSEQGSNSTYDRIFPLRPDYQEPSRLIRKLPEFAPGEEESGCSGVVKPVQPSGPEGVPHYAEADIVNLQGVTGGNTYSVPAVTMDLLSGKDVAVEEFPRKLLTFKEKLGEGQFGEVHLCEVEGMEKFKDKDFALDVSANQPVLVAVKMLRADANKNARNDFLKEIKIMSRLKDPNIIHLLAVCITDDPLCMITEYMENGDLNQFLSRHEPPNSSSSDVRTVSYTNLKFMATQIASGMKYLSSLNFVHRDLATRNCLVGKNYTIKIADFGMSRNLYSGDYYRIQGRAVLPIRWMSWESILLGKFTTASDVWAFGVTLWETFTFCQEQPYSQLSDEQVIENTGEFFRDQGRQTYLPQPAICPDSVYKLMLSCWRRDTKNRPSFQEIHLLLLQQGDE

[3] = target: T3, MAP/microtubule affinity-regulating kinase 4 (Homo sapiens) (UniProt Q96L34)
T3 sequence (whole entry): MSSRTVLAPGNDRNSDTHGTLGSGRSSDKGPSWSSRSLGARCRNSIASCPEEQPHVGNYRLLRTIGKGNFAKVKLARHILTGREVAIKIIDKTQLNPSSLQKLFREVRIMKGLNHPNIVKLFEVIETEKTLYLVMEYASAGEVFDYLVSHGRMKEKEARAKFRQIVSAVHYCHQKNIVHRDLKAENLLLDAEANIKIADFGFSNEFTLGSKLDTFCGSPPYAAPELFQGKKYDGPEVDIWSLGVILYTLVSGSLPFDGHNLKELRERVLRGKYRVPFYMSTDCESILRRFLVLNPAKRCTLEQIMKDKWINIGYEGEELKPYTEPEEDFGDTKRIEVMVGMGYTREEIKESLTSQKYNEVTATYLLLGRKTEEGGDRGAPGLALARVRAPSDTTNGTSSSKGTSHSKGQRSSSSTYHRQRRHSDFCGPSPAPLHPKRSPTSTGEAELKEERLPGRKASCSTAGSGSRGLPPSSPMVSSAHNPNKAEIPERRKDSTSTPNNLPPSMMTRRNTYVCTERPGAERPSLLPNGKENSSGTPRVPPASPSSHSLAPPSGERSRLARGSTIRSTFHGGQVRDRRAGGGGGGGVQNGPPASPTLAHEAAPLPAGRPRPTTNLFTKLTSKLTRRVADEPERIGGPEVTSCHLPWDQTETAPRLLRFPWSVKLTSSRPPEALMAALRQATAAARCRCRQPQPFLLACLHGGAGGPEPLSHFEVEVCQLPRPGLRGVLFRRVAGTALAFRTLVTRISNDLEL

[4] = target: Serine/threonine-protein kinase pim-3 (Homo sapiens) (UniProt Q86V86)
[5] = target: Phosphatidylinositol 4-phosphate 5-kinase type-1 gamma (Homo sapiens) (UniProt O60331)
[6] = target: Homeodomain-interacting protein kinase 3 (Homo sapiens) (UniProt Q9H422)
[7] = Compound concentration 1000.0 nM
[8] = Compound concentration 100.0 nM

Measured: residual activity

Chain of Homeodomain-interacting protein kinase 3 (Homo sapiens) (Q9H422 whole entry, looked up): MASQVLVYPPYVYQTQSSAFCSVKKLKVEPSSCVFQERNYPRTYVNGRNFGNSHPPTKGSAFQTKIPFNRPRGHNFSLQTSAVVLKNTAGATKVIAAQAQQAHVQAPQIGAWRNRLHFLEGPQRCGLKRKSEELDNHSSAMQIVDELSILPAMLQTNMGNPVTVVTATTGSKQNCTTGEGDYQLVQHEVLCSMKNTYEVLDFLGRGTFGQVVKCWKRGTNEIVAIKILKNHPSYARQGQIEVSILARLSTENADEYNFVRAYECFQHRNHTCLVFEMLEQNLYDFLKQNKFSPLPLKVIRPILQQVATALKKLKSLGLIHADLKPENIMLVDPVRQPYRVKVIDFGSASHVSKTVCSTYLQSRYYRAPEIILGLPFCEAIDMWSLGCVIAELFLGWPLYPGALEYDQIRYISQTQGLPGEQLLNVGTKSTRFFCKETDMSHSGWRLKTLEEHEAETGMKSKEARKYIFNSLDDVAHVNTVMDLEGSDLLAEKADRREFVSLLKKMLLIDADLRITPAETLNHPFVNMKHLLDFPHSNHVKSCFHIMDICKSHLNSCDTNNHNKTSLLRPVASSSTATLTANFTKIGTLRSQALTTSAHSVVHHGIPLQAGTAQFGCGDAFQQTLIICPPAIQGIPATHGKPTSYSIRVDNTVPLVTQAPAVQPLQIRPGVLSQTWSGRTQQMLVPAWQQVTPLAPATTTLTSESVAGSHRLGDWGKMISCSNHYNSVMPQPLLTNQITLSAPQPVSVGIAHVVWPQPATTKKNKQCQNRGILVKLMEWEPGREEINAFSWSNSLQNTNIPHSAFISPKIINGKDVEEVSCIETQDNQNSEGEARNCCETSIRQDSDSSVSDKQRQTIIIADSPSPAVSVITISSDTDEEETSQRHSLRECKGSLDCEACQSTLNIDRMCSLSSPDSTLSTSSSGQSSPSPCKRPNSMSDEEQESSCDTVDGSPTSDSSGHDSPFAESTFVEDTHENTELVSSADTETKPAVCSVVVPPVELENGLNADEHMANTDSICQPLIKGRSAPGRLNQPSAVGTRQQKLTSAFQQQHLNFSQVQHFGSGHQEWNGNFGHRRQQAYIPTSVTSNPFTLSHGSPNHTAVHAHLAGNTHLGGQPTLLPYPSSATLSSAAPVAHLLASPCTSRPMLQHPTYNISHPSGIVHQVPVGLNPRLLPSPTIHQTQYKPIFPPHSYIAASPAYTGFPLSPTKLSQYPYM
Chain of Phosphatidylinositol 4-phosphate 5-kinase type-1 gamma (Homo sapiens) (O60331 whole entry): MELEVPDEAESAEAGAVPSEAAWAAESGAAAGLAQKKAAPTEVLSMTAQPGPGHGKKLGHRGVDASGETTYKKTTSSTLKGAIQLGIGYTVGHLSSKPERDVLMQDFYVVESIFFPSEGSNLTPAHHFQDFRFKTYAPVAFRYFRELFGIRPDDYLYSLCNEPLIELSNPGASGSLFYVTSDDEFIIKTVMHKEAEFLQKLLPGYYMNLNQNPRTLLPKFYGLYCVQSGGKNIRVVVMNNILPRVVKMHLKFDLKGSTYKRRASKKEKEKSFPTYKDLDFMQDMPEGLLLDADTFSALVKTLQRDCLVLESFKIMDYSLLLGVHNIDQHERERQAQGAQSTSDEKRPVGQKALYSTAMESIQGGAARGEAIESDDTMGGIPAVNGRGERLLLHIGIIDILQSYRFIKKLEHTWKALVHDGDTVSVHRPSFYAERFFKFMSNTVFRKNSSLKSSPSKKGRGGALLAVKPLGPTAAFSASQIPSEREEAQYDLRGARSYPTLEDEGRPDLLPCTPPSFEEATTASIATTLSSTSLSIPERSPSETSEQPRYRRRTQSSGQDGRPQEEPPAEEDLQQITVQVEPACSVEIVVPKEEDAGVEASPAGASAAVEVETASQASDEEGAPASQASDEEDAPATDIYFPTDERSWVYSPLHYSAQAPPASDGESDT

C[C@@H]1CN(c2cc(-c3nn(C)c4ccc(OC5(C)CC5)cc34)ncn2)C[C@H](C)O1 [MLi-2-NC]
inactive: [1]; [7] 81% | [2]; [7] 79% | [3]; [7] 100% | [4]; [7] 92% | [5]; [7] 90% | [6]; [7] 91%

C[C@@H]1CN(c2cc(-c3n[nH]c4ccc(OC5(C)CC5)cc34)ncn2)C[C@H](C)O1 [MLi-2]
inactive: [1]; [8] 76% | [2]; [8] 82% | [3]; [8] 100% | [4]; [8] 100% | [5]; [8] 92% | [6]; [8] 73%
